Results taken from paper PMC9229949 (Pharmaceutics, 2022).

Key:
PfTrxR = biological target: T1, PfTrxR (Plasmodium falciparum, UniProt Q25861); assay: Inhibition of enzymatic activity of recombinant P. falciparum TrxR; assay type: biochemical; settings: recombinant enzyme, 15 min preincubation; mean of one experiment; read-out: IC50 for TrxRs, P. falciparum (Cys)
T1 construct: made in house
T1 sequence (Q25861 1-541): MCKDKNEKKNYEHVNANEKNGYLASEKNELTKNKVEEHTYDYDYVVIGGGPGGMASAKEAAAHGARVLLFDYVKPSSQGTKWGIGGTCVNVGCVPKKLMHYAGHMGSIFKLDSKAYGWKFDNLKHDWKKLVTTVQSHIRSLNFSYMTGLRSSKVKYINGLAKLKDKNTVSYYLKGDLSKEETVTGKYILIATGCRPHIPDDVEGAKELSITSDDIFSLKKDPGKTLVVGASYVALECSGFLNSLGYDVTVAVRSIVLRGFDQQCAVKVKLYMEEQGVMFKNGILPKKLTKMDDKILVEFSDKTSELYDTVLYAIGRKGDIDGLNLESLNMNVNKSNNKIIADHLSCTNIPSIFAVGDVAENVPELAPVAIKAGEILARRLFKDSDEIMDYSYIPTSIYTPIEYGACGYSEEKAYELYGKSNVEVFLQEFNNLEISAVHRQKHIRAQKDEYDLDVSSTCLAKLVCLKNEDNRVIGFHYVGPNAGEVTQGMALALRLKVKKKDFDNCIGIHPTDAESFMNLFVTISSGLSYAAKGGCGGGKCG
Method: (§1) The codon-optimized sequence for PfTrxR [27, 28] was synthesized and subcloned into pET-15b (Genscript) and expressed and purified as for human glutathione reductase (hGR). Recombinant Schistosoma mansoni (S. mansoni) thioredoxin glutathione reductase (SmTGR), human TrxR (hTrxR), and hGR proteins were expressed and purified as described. TrxR and TGR enzyme inhibition assays were performed in triplicate at 25 °C in 0.1 M potassium phosphate (pH 7.4), 10 mM EDTA, 100 µM NADPH and 0.01% Tween-20. SmTGR (4 nM), hTrxR (4 nM), and PfTrxR (50 nM) were preincubated with the compounds for 15 min. The reaction was started with addition of an equal volume of 5,5′-dithiobis(2-nitrobenzoic acid) (6 mM) and NADPH (100 µM). The increase in A412 during the first 3 min was recorded. […]. The reactions were performed in triplicate. The IC50s were calculated in Prism version 5.01.

[1] = test system: P. falciparum 3D7 (CQ-susceptible) asexual blood stages; parameters: method as in PMID 29465117; settings: in vitro antiplasmodial activity; read-out: P. falciparum 3D7 (Cell Based Activity), IC50; cited from earlier work
human TrxR (hTrxR) = biological target: T2, human TrxR (hTrxR) (Homo sapiens, UniProt Q16881); assay: Inhibition of enzymatic activity of recombinant human TrxR; assay type: biochemical; settings: recombinant enzyme, 15 min preincubation; mean of one experiment; read-out: IC50 for TrxRs, Human (Sec)
T2 construct: made in house
T2 sequence (Q16881 151-649 limits assumed): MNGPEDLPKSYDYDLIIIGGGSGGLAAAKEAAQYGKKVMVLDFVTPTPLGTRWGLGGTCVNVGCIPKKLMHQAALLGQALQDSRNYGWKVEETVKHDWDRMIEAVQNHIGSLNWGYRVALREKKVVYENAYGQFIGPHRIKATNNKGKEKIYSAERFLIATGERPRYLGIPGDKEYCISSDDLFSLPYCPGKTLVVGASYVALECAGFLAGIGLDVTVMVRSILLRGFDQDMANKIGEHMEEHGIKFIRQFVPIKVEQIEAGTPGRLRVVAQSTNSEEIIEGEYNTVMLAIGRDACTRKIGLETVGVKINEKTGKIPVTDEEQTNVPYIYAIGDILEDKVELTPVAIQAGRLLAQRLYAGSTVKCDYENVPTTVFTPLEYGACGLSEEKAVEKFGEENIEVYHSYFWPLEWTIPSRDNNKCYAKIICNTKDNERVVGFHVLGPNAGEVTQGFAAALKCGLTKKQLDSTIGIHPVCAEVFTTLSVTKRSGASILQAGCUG
Method: as §1

[2] = biological target: T3, S. mansoni thioredoxin-glutathione reductase (SmTGR) (Schistosoma mansoni, UniProt Q962Y6); assay: Inhibition of enzymatic activity of recombinant S. mansoni thioredoxin glutathione reductase; assay type: biochemical; settings: 15 min preincubation, mean of one experiment, read-out: IC50 for TrxRs, S. mansoni (Sec)
T3 construct: made in house
T3 sequence (Q962Y6 1-598): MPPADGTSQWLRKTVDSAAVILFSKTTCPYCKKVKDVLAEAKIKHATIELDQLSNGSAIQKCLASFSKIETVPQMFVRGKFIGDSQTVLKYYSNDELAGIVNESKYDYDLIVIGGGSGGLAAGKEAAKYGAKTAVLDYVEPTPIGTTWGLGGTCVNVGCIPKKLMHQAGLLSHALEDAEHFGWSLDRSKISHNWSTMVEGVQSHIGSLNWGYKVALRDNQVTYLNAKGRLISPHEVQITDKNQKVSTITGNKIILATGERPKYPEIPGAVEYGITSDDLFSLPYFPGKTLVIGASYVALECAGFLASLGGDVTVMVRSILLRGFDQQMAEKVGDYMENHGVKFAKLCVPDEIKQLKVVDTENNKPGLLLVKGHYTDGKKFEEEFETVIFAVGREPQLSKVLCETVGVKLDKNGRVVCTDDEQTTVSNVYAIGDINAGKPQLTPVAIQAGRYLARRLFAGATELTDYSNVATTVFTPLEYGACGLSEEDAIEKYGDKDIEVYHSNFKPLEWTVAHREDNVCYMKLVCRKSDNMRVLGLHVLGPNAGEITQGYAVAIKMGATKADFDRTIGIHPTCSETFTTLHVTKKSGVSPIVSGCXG
Method: as §1

[3] = biological target: T4, human glutathione reductase (hGR) (Homo sapiens, UniProt P00390); assay: Inhibition of enzymatic activity of recombinant human glutathione reductase; assay type: biochemical; settings: recombinant enzyme, 15 min preincubation; mean of one experiment; read-out: IC50, Human GR
T4 construct: made in house
T4 sequence (P00390 44-522): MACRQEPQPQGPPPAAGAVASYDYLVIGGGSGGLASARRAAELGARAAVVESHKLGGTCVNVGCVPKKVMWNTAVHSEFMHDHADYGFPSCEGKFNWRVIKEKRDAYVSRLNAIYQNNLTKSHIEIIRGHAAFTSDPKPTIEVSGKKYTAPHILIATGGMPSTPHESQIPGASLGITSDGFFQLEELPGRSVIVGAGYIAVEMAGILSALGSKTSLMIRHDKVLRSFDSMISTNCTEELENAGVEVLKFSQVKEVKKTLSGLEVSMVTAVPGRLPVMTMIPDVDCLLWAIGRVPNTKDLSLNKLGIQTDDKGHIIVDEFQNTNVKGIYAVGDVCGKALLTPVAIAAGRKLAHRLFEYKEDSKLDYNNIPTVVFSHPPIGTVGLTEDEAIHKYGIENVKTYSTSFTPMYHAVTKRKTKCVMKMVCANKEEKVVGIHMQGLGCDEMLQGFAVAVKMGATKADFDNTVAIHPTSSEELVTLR
Method: as §1

For CC(=O)OC[C@H]1O[C@@H]([S-])[C@H](OC(C)=O)[C@@H](OC(C)=O)[C@@H]1OC(C)=O.CCP(CC)CC.[Au+] [Auranofin, auranofin], which IC50 (PfTrxR) is on record?
Its IC50 is 62 nM.

And the IC50 [1]?
The IC50 was 60 nM.

And the IC50 (human TrxR (hTrxR))?
Its IC50 is 20 nM.

What about the IC50 [2] of the same compound?
Its IC50 is 7 nM.

What about the IC50 [3] of the same compound?
Its IC50 is 40000 nM.
